Measured values as given in patent publication US10765659B2, “Potentiated tulathromycin” (SEPTEOS, priority 2016, dated 2020).
Where two headings read alike, the source gives them in different places.

Columns and labels:
[1] = cat; cited from earlier work
[2] = rat; cited from earlier work
[3] = tested on: strain 13043 (Actinobacillus pleuropneumoniae); test: Growth test / bactericidal action test in liquid medium; format: cell-based; details: strain 13043, DMSO, tulathromycin at 16 times its MIC, cineole at 1 mg/L
Method: (§1) Growth tests are performed in liquid medium with prior dispersion of the antibiotic booster in a suitable solvent (here DMSO).
(§2) Bacterial growth kinetics are measured in the presence of tulathromycin (at a concentration of 4 or 16 times its MIC); tulathromycin (at a concentration of 4 or 16 times its MIC) and 1,8-cineole at a mass ratio of 1:1; and tulathromycin (at a concentration of 4 or 16 times its MIC) and 1 mg of 1,8-cineole.
2 Growth Test on Strain 13043 (Actinobactllus Pleuropneumonlae) […]
diamond: control (bacteria alone in DMSO) square: tulathromycin diluted in DMSO at a concentration of 16 times its MIC triangle: tulathromycin and cineole, diluted in DMSO, tulathromycin is at a concentration of 16 times its MIC, cineole at 1 mg/L
Cross (x): cineole control, at 1 mg/L

Staphylococcus [4] = test: Resistance test: resistant mutant colonies on Mueller Hinton plate; format: cell-based
Method: One hundred microlitres of a Mueller Hinton broth culture of the strain to be studied (heavy inoculum>10^10 CFU/mL) is spread on a Mueller Hinton plate containing an oil concentration equal to 0.5/1/2/4 times the MIC of tulathromycin. After 48 hours of incubation, the presence or absence of colonies likely to be resistant mutants are observed.

[5] = tested on: Actinobacillus pleuropneumoniae; test: MIC measurement in solid agar medium (CLSI); format: cell-based
Method: (§3) “MIC” means “minimal inhibitory concentration”, which is the lowest concentration of substance at which microbial growth is no longer observed after 18 to 24 hours of contact under conditions favourable to microbial growth.
(§4) The minimum inhibitory concentration measurement tests are performed in a solid agar medium according to current international standards (CLSI standards M7-A9 January 12): dispersion of the compounds to be tested in Mueller Hinton agar. An adaptation relating to the hydrophobicity of the compounds and compositions is however necessary to disperse them in the medium: the compounds are diluted in a solvent. The compounds and compositions incorporated in the agar may be first diluted in one or more solvents (Tween® 80 diluted in water, Tween@ 80 diluted in propylene, DMSO diluted in water). The medium may be cation-adjusted. The strains are deposited on the surface of the agar with a Steers apparatus. In the examples, various methods for dissolving the products are tested in parallel to circumvent problems related to the water/solvent distribution coefficient of the molecules (antimicrobial and potentiator) as the bacteria grow only in the aqueous phase. The technical constraint will not affect the in vivo tests. The same dilution methods can be used in liquid media (microplates and tubes). The same methodology is used with fungi.
(§5) MIC measurement: The minimum inhibitory concentration measurement tests are performed in solid agar medium according to current international standards (CLSI standards), according to the protocol defined above. The compounds and compositions incorporated in the agar may be first diluted in one or more solvents (ethanol, or DMSO diluted in water).

Streptococcus suis = test: MIC measurement in solid agar medium (CLSI); format: cell-based
Method: as §3, §4, §5

Enterococcus = test: MIC measurement in solid agar medium (CLSI); format: cell-based
Method: as §3, §4, §5

E. coli = test: MIC measurement in solid agar medium (CLSI); format: cell-based
Method: as §3, §4, §5

Staphylococcus [6] = test: MIC measurement in solid agar medium (CLSI); format: cell-based
Method: as §3, §4, §5

[7] = tested on: microorganisms grown in planktonic and biofilm cultures; details: Hendry et al., J Antimicrob Chemother 2009; cited from earlier work
strain 13120 (E. coli) = test: Growth test / bactericidal action test in liquid medium; format: cell-based; details: strain 13120, DMSO, tulathromycin at 4 times its MIC, cineole at mass ratio 1:1 or 1 mg/L
Method: as §1, §2
1 Growth Test on Strain 13120 (Genus E. coli) […]
diamond: control (bacteria alone in DMSO) square: tulathromycin diluted in DMSO at a concentration of 4 times its MIC triangle: tulathromycin and cineole, diluted in DMSO, tulathromycin is at a concentration of 4 times its MIC, the tulathromycin/cineole mass ratio is 1:1 Cross (x): tulathromycin and cineole, diluted in DMSO, tulathromycin is at a concentration of 4 times its MIC, cineole at 1 mg/L

Cc1ccc(C(C)C)cc1O [carvacrol]
lowest oral lethal dose [1]: 100 mg/kg
lowest oral lethal dose [2]: 100 mg/kg

CCCNC[C@]1(O)[C@H](C)O[C@@H](O[C@H]2[C@H](C)[C@@H](O[C@@H]3O[C@H](C)C[C@H](N(C)C)[C@H]3O)[C@](C)(O)C[C@@H](C)CN[C@H](C)[C@@H](O)[C@](C)(O)[C@@H](CC)OC(=O)[C@@H]2C)C[C@@]1(C)OC [ATB]
Bacterial growth kinetics / number of bacteria (FIG. 2) [3]: bacteriostatic
Development of mutants (Staphylococcus [4]; S. aureus (strain 8147), summary of Table 4): countless mutants
Colonies likely to be resistant mutants after 48 hours (Staphylococcus [4]; strain 8146, ethanol solvent, 0.5 times the MIC of tulathromycin): overgrown
Colonies likely to be resistant mutants after 48 hours (Staphylococcus [4]; strain 8146, ethanol solvent, 1 times the MIC of tulathromycin): overgrown
Colonies likely to be resistant mutants after 48 hours (Staphylococcus [4]; strain 8146, ethanol solvent, 2 times the MIC of tulathromycin): overgrown
Colonies likely to be resistant mutants after 48 hours (Staphylococcus [4]; strain 8146, ethanol solvent, 4 times the MIC of tulathromycin): 0
Colonies likely to be resistant mutants after 48 hours (Staphylococcus [4]; strain 8147, ethanol solvent, 0.5 times the MIC of tulathromycin): overgrown
Colonies likely to be resistant mutants after 48 hours (Staphylococcus [4]; strain 8147, ethanol solvent, 1 times the MIC of tulathromycin): overgrown
Colonies likely to be resistant mutants after 48 hours (Staphylococcus [4]; strain 8147, ethanol solvent, 2 times the MIC of tulathromycin): overgrown
Colonies likely to be resistant mutants after 48 hours (Staphylococcus [4]; strain 8147, ethanol solvent, 4 times the MIC of tulathromycin): overgrown
MIC ([5]; strain 13012, DMSO): 2 µg/mL
MIC ([5]; strain 13012, EtOH): 2 µg/mL
MIC ([5]; strain 13030, DMSO): 0.5 µg/mL
MIC ([5]; strain 13030, EtOH): 0.5 µg/mL
MIC ([5]; strain 13032, DMSO): 0.5 µg/mL
MIC ([5]; strain 13032, EtOH): 0.5 µg/mL
MIC ([5]; strain 13041, DMSO): 0.5 µg/mL
MIC ([5]; strain 13041, EtOH): 0.5 µg/mL
MIC ([5]; strain 13042, DMSO): 0.5 µg/mL
MIC ([5]; strain 13042, EtOH): 0.6 µg/mL
MIC ([5]; strain 13043, DMSO): 0.5 µg/mL
MIC ([5]; strain 13043, EtOH): 0.6 µg/mL
MIC of tulathromycin ([5]; strain 13043, value used for growth test): 0.5 mg
MIC ([5]; strain 13045, DMSO): 0.5 µg/mL
MIC ([5]; strain 13045, EtOH): 0.6 µg/mL
MIC (Streptococcus suis; strain 13092, DMSO): 1.1 µg/mL
MIC (Streptococcus suis; strain 13092, EtOH): 1.1 µg/mL
MIC (Enterococcus; Enterococcus strain without reference (Table 3, r6), EtOH): 0.9 µg/mL
MIC (Enterococcus; Enterococcus strain without reference (Table 3, r7), EtOH): 1.7 µg/mL
MIC (Enterococcus; strain 8152, EtOH): 1 µg/mL
MIC (Enterococcus; strain 8153, EtOH): 1.42 µg/mL
MIC (E. coli; strain 13120, DMSO): 2 µg/mL
MIC (E. coli; strain 13120, EtOH): 2.7 µg/mL
MIC of tulathromycin (E. coli; strain 13120, value used for growth test): 2 µg/mL
MIC (E. coli; strain 13121, DMSO): 2 µg/mL
MIC (E. coli; strain 13121, EtOH): 2.7 µg/mL
MIC (E. coli; strain 13122, DMSO): 2 µg/mL
MIC (E. coli; strain 13122, EtOH): 2 µg/mL
MIC (E. coli; strain 13123, DMSO): 2 µg/mL
MIC (E. coli; strain 13123, EtOH): 2 µg/mL
MIC (E. coli; strain 13124, DMSO): 1.5 µg/mL
MIC (E. coli; strain 13124, EtOH): 2 µg/mL
MIC (E. coli; strain 13125, DMSO): 1.5 µg/mL
MIC (E. coli; strain 13125, EtOH): 1.5 µg/mL
MIC (E. coli; strain 13126, DMSO): 2 µg/mL
MIC (E. coli; strain 13126, EtOH): 2 µg/mL
MIC (E. coli; strain 13128, DMSO): 2 µg/mL
MIC (E. coli; strain 13128, EtOH): 2 µg/mL
MIC (E. coli; strain 13129, DMSO): 2.7 µg/mL
MIC (E. coli; strain 13129, EtOH): 3.6 µg/mL
MIC (E. coli; strain 13130, DMSO): 2 µg/mL
MIC (E. coli; strain 13130, EtOH): 3.6 µg/mL
MIC (E. coli; strain 13131, DMSO): 1.5 µg/mL
MIC (E. coli; strain 13131, EtOH): 1.5 µg/mL
MIC (E. coli; strain 13132, DMSO): 2 µg/mL
MIC (E. coli; strain 13132, EtOH): 2.7 µg/mL
MIC (E. coli; strain 13133, DMSO): 1.5 µg/mL
MIC (E. coli; strain 13133, EtOH): 2 µg/mL
MIC (E. coli; strain 13134, DMSO): 1.5 µg/mL
MIC (E. coli; strain 13134, EtOH): 1.5 µg/mL
MIC (E. coli; strain 13170, DMSO): 1.5 µg/mL
MIC (E. coli; strain 13170, EtOH): 2 µg/mL
MIC (E. coli; strain 13171, DMSO): 2.7 µg/mL
MIC (E. coli; strain 13171, EtOH): 3.6 µg/mL
MIC (E. coli; strain 13172, DMSO): 1.5 µg/mL
MIC (E. coli; strain 13172, EtOH): 1.5 µg/mL
MIC (E. coli; strain 13173, DMSO): 1.5 µg/mL
MIC (E. coli; strain 13173, EtOH): 1.5 µg/mL
MIC (E. coli; strain 13174, DMSO): 2 µg/mL
MIC (E. coli; strain 13174, EtOH): 2 µg/mL
MIC (E. coli; strain 13175, DMSO): 2 µg/mL
MIC (E. coli; strain 13175, EtOH): 3.6 µg/mL
MIC (E. coli; strain Q54IE2, EtOH): 0.8 µg/mL
MIC (E. coli; strain Q96CEB, EtOH): 1.9 µg/mL
MIC (Staphylococcus [6]; strain 8146, EtOH): 0.45 µg/mL
MIC (Staphylococcus [6]; strain 8147, EtOH): 0.45 µg/mL
MIC (Staphylococcus [6]; strain 8148, EtOH): 0.45 µg/mL
MIC (Staphylococcus [6]; strain 8149, EtOH): 0.45 µg/mL
MIC (Staphylococcus [6]; strain 8238, EtOH): 0.45 µg/mL
MIC (Staphylococcus [6]; strain 12216, EtOH): 2.53 µg/mL
MIC (Staphylococcus [6]; strain 13218, EtOH): 1.07 µg/mL
MIC (Staphylococcus [6]; strain 13221, EtOH): 1.07 µg/mL

CC12CCC(CC1)C(C)(C)O2 [cineole, 1,8-cineole]
MIC of cineole in the publication [7]: 8000 to 64000 µg/mL
Bacterial growth kinetics / bactericidal action (FIG. 1) (strain 13120 (E. coli)): increase the bactericidal action of tulathromycin
Bacterial growth kinetics / number of bacteria (FIG. 2) [3]: significantly decrease the number of bacteria
Development of mutants (Staphylococcus [4]; strain 8146, cineole added to tulathromycin, summary of Table 5): decreases the development of mutants
